Experiments:
Assay in all cases: KINOMEscan competition binding
Details in all cases: compound 10.0 µM
MAP4K3 (human) = MAP4K3 (human) (UniProt Q8IVH8)
RPS6KA6 KD2 (human) = RPS6KA6 KD2 (human) (UniProt Q9UK32)
MYO3B (human) = MYO3B (human) (UniProt Q8WXR4)
[1] = test system: FLT3 (human), P36888 [K663Q]
YSK4 (human) = YSK4 (human) (UniProt Q56UN5)
[2] = test system: PIK3CA (human), P42336 [Q546K]
STK39 (human) = STK39 (human) (UniProt Q9UEW8)
CSNK1G3 (human) = CSNK1G3 (human) (UniProt Q9Y6M4)
PRKCQ (human) = PRKCQ (human) (UniProt Q04759)
Chain of PRKCQ (human) (Q04759 whole entry, looked up): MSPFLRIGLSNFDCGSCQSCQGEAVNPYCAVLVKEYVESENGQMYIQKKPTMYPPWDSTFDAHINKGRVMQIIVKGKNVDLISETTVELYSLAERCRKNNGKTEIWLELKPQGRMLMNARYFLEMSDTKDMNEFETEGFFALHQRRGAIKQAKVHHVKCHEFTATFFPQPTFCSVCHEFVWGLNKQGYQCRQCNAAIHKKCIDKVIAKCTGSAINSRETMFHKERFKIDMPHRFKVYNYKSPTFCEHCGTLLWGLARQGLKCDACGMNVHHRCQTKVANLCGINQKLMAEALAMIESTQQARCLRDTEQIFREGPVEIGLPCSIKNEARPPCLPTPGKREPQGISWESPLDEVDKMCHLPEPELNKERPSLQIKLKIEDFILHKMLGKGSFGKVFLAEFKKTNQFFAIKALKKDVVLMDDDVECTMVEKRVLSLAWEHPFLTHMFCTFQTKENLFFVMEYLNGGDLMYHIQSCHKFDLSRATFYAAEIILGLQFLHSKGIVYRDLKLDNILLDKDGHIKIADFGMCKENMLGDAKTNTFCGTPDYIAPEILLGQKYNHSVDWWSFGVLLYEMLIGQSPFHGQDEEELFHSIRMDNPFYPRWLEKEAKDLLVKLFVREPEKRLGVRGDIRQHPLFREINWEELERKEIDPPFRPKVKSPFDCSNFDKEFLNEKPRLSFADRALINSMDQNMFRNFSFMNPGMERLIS

MAPK6 (human) = MAPK6 (human) (UniProt Q16659)
Chain of MAPK6 (human) (Q16659 whole entry, looked up): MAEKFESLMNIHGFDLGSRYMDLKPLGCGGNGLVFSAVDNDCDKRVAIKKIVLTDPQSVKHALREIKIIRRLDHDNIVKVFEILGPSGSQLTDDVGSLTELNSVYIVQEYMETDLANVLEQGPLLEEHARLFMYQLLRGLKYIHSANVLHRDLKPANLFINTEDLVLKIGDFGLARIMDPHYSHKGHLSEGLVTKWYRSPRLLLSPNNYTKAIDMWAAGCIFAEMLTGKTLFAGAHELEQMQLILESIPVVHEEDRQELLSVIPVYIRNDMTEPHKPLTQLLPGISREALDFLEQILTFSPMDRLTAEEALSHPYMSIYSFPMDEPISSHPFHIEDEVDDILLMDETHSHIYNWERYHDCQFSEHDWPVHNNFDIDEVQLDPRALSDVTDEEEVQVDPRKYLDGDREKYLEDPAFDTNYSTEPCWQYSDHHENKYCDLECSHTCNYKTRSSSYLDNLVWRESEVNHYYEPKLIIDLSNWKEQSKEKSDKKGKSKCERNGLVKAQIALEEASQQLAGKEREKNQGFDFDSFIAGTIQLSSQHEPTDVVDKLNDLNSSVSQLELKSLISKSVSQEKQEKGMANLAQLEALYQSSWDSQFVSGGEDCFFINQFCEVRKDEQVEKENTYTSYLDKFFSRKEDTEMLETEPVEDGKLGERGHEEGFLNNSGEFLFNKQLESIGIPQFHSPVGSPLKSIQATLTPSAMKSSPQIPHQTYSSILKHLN

TLK2 (human) = TLK2 (human) (UniProt Q86UE8)
TTK (human) = TTK (human) (UniProt P33981)
MST4 (human) = MST4 (human) (UniProt Q9P289)
ERN1 (human) = ERN1 (human) (UniProt O75460)
PLK2 (human) = PLK2 (human) (UniProt Q9NYY3)
Chain of PLK2 (human) (Q9NYY3 whole entry, looked up): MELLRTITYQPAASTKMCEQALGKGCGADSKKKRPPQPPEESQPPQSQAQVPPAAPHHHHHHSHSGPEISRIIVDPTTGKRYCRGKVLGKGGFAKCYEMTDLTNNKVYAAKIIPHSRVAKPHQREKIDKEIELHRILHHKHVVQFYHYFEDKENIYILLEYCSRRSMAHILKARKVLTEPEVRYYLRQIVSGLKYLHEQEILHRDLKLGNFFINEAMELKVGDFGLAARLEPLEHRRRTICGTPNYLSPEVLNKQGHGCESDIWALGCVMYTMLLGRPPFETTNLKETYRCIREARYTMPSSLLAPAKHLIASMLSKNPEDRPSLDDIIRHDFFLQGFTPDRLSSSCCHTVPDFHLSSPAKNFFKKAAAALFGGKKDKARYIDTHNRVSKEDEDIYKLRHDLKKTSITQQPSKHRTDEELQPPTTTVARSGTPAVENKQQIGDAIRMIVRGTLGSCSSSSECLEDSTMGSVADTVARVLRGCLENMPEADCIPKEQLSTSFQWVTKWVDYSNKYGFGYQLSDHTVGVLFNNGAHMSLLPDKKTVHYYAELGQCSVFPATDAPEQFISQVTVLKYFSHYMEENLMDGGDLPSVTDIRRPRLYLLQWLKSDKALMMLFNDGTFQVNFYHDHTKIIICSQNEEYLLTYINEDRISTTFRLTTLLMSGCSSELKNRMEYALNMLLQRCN

RPS6KA4 KD1 (human) = RPS6KA4 KD1 (human) (UniProt O75676)
MAP2K6 (human) = MAP2K6 (human) (UniProt P52564)
DAPK1 (human) = DAPK1 (human) (UniProt P53355)
CAMK2B (human) = CAMK2B (human) (UniProt Q13554)
MAP2K4 (human) = MAP2K4 (human) (UniProt P45985)
NEK7 (human) = NEK7 (human) (UniProt Q8TDX7)
EIF2AK2 (human) = EIF2AK2 (human) (UniProt P19525)
MYLK4 (human) = MYLK4 (human) (UniProt Q86YV6)
CAMK4 (human) = CAMK4 (human) (UniProt Q16566)
ACVR1B (human) = ACVR1B (human) (UniProt P36896)
Chain of ACVR1B (human) (P36896 whole entry, looked up): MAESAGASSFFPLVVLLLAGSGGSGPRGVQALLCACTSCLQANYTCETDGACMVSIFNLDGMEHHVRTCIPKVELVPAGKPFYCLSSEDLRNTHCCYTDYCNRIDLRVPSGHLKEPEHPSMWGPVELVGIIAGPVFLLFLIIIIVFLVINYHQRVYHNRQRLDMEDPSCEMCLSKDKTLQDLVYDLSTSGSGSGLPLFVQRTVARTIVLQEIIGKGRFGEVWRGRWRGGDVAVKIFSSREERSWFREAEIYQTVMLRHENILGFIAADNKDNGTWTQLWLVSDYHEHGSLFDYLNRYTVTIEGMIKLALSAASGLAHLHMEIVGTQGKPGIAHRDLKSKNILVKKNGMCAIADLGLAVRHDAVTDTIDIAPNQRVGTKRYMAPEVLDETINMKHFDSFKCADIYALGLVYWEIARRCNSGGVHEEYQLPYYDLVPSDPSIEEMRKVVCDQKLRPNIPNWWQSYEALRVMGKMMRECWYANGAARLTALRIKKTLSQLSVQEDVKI

ACVRL1 (human) = ACVRL1 (human) (UniProt P37023)
PKN2 (human) = PKN2 (human) (UniProt Q16513)
FGR (human) = FGR (human) (UniProt P09769)
STK32A (human) = STK32A (human) (UniProt Q8WU08)
CDC42BPA (human) = CDC42BPA (human) (UniProt Q5VT25)
CaMK1 (human) = CaMK1 (human) (UniProt Q14012)
Chain of CaMK1 (human) (Q14012 whole entry, looked up): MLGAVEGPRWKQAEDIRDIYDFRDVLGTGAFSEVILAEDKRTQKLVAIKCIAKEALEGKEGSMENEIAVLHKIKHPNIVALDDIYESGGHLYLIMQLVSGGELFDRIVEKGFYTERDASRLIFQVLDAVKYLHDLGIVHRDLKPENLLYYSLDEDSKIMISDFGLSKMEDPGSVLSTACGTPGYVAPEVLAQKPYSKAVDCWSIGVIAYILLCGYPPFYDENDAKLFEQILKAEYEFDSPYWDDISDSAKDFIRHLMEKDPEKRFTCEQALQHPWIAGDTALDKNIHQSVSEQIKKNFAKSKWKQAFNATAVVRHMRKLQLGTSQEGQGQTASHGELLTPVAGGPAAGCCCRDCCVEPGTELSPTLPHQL

PRKAA2 (human) = PRKAA2 (human) (UniProt P54646)
FGFR4 (human) = FGFR4 (human) (UniProt P22455)
GAK (human) = GAK (human) (UniProt O14976)
Chain of GAK (human) (O14976 whole entry, looked up): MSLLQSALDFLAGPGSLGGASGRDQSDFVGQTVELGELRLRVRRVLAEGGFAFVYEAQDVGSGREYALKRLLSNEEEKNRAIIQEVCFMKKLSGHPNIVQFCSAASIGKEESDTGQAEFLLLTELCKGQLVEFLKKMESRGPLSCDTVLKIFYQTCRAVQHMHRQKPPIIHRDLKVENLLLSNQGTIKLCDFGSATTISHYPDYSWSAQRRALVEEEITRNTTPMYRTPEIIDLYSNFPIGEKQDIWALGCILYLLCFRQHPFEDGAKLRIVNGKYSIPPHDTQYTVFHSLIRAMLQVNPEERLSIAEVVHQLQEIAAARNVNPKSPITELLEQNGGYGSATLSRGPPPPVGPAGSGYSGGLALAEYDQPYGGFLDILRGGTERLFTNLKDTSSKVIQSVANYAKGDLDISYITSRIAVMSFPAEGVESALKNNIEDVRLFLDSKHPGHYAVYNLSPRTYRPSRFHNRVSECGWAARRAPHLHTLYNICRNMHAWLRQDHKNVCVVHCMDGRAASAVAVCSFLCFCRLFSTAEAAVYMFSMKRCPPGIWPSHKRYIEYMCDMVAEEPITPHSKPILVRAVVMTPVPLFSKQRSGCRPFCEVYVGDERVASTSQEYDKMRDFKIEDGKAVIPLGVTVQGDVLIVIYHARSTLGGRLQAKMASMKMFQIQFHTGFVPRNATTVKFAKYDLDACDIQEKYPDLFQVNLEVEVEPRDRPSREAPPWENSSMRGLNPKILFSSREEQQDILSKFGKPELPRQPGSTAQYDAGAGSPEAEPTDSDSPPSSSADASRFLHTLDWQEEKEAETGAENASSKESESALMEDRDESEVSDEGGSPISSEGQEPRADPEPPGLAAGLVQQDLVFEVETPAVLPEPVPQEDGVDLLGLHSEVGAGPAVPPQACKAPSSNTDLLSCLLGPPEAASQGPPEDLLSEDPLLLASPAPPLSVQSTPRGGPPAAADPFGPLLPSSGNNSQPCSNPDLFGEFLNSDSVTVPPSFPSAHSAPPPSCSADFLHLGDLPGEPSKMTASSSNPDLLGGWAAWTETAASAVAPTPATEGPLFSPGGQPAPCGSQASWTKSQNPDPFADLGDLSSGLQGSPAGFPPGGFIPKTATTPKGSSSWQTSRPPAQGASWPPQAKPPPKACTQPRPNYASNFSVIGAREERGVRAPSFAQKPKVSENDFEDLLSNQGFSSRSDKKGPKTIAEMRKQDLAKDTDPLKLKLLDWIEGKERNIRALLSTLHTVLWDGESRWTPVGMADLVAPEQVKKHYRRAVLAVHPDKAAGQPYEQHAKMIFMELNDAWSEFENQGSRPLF

[3] = target: TYK2 JH2 pseudokinase (human) (UniProt P29597)
ERBB2 (human) = ERBB2 (human) (UniProt P04626)
PLK1 (human) = PLK1 (human) (UniProt P53350)
Chain of PLK1 (human) (P53350 whole entry, looked up): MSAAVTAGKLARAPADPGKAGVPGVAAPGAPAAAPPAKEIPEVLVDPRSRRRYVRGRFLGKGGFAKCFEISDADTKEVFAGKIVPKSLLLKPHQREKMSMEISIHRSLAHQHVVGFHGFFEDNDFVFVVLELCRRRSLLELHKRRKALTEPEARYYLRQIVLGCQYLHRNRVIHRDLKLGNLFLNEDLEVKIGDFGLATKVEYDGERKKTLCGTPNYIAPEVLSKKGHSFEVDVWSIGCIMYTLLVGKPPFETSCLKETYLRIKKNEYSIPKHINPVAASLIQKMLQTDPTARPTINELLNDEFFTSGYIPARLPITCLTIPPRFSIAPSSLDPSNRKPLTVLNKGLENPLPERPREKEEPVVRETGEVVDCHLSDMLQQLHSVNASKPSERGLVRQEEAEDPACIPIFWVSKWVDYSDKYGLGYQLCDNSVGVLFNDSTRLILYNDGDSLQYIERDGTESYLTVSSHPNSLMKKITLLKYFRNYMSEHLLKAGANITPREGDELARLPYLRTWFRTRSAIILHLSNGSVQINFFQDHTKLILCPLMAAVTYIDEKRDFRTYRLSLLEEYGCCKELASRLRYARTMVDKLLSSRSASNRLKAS

PRKACB (human) = PRKACB (human) (UniProt P22694)
CIT (human) = CIT (human) (UniProt O14578)
BTK (human) = BTK (human) (UniProt Q06187)

SMILES | kinase still bound, per cent of control (MAP4K3 (human)) [%] | kinase still bound, per cent of control (RPS6KA6 KD2 (human)) [%] | kinase still bound, per cent of control (MYO3B (human)) [%] | kinase still bound, per cent of control [1] [%] | kinase still bound, per cent of control (YSK4 (human)) [%] | kinase still bound, per cent of control [2] [%] | kinase still bound, per cent of control (STK39 (human)) [%] | kinase still bound, per cent of control (CSNK1G3 (human)) [%] | kinase still bound, per cent of control (PRKCQ (human)) [%] | kinase still bound, per cent of control (MAPK6 (human)) [%] | kinase still bound, per cent of control (TLK2 (human)) [%] | kinase still bound, per cent of control (TTK (human)) [%] | kinase still bound, per cent of control (MST4 (human)) [%] | kinase still bound, per cent of control (ERN1 (human)) [%] | kinase still bound, per cent of control (PLK2 (human)) [%] | kinase still bound, per cent of control (RPS6KA4 KD1 (human)) [%] | kinase still bound, per cent of control (MAP2K6 (human)) [%] | kinase still bound, per cent of control (CAMK2B (human)) [%] | kinase still bound, per cent of control (MAP2K4 (human)) [%] | kinase still bound, per cent of control (NEK7 (human)) [%] | also measured
CCC(=O)N1CCN(c2ccc(-n3c(=O)ccc4cnc5ccc(-c6cnc7ccccc7c6)cc5c43)cc2C(F)(F)F)CC1 | 1.9 | 86 | 100 | 23 | 38 | 6.8 | 100 | 100 | 91 | 1.8 | 100 | 9.6 | 89 | 100 | 85 | 100 | 100 | 100 | 30 | 90 | kinase still bound, per cent of control (DAPK1 (human)): 96%; kinase still bound, per cent of control (EIF2AK2 (human)): 88%; kinase still bound, per cent of control (MYLK4 (human)): 83%; kinase still bound, per cent of control (CAMK4 (human)): 90%; kinase still bound, per cent of control (ACVR1B (human)): 45%; kinase still bound, per cent of control (ACVRL1 (human)): 83%; kinase still bound, per cent of control (PKN2 (human)): 65%; kinase still bound, per cent of control (FGR (human)): 78%; kinase still bound, per cent of control (STK32A (human)): 100%; kinase still bound, per cent of control (CDC42BPA (human)): 0.65%; kinase still bound, per cent of control (CaMK1 (human)): 50%; kinase still bound, per cent of control (PRKAA2 (human)): 74%; kinase still bound, per cent of control (FGFR4 (human)): 21%; kinase still bound, per cent of control (GAK (human)): 57%; kinase still bound, per cent of control [3]: 55%; kinase still bound, per cent of control (ERBB2 (human)): 91%; kinase still bound, per cent of control (PLK1 (human)): 85%; kinase still bound, per cent of control (PRKACB (human)): 100%; kinase still bound, per cent of control (CIT (human)): 59%
C[C@@H](Oc1cc(-n2cnc3ccc(CN4CCN(C)CC4)cc32)sc1C(N)=O)c1ccccc1C(F)(F)F | 59 | 73 | 100 | 14 | 12 | 29 | 11 | 100 | 47 | 100 | 94 | 95 | 95 | 34 | 2.6 | 68 | 98 | 19 | 86 | 66 | kinase still bound, per cent of control (BTK (human)): 100%; kinase still bound, per cent of control (EIF2AK2 (human)): 76%; kinase still bound, per cent of control (MYLK4 (human)): 78%; kinase still bound, per cent of control (CAMK4 (human)): 100%; kinase still bound, per cent of control (ACVR1B (human)): 97%; kinase still bound, per cent of control (ACVRL1 (human)): 100%; kinase still bound, per cent of control (PKN2 (human)): 6%; kinase still bound, per cent of control (FGR (human)): 82%; kinase still bound, per cent of control (STK32A (human)): 66%; kinase still bound, per cent of control (CDC42BPA (human)): 95%; kinase still bound, per cent of control (CaMK1 (human)): 90%; kinase still bound, per cent of control (PRKAA2 (human)): 80%; kinase still bound, per cent of control (FGFR4 (human)): 100%; kinase still bound, per cent of control (GAK (human)): 100%; kinase still bound, per cent of control [3]: 100%; kinase still bound, per cent of control (ERBB2 (human)): 68%; kinase still bound, per cent of control (PLK1 (human)): 0.1%; kinase still bound, per cent of control (PRKACB (human)): 89%; kinase still bound, per cent of control (CIT (human)): 87%
O=C(O)c1ccc(Nc2ncc3c(n2)-c2ccc(Cl)cc2C(c2c(F)cccc2F)=NC3)cc1 | 97 | 58 | 100 | 68 | 62 | 14 | 100 | 93 | 98 | 92 | 83 | 63 | 100 | 100 | 29 | 100 | 72 | 71 | 100 | 100 | kinase still bound, per cent of control (BTK (human)): 28%; kinase still bound, per cent of control (DAPK1 (human)): 48%; kinase still bound, per cent of control (EIF2AK2 (human)): 100%; kinase still bound, per cent of control (MYLK4 (human)): 89%; kinase still bound, per cent of control (CAMK4 (human)): 66%; kinase still bound, per cent of control (ACVR1B (human)): 94%; kinase still bound, per cent of control (ACVRL1 (human)): 64%; kinase still bound, per cent of control (PKN2 (human)): 79%; kinase still bound, per cent of control (FGR (human)): 7.6%; kinase still bound, per cent of control (STK32A (human)): 54%; kinase still bound, per cent of control (CDC42BPA (human)): 84%; kinase still bound, per cent of control (CaMK1 (human)): 78%; kinase still bound, per cent of control (PRKAA2 (human)): 67%; kinase still bound, per cent of control (FGFR4 (human)): 58%; kinase still bound, per cent of control (GAK (human)): 49%; kinase still bound, per cent of control [3]: 100%; kinase still bound, per cent of control (PLK1 (human)): 100%; kinase still bound, per cent of control (PRKACB (human)): 58%; kinase still bound, per cent of control (CIT (human)): 37%

Reference: the kinase profiling compilation of Christmann-Franck et al. (2016)
